Source: US20090029992A1, “SUBSTITUTED PYRAZOLE COMPOUNDS” (priority 2007, published 2009)

Experiments:
[1] = target: T1, recombinant Aurora A (Homo sapiens, UniProt O14965); assay: Aurora A (Aurora 2) inhibition assay, Z'-Lyte kinase assay; type: biochemical; conditions: ATP 10 μM, 1 h
T1 construct: purchased Upstate, Lake Placid, N.Y
T1 sequence (O14965 1-403): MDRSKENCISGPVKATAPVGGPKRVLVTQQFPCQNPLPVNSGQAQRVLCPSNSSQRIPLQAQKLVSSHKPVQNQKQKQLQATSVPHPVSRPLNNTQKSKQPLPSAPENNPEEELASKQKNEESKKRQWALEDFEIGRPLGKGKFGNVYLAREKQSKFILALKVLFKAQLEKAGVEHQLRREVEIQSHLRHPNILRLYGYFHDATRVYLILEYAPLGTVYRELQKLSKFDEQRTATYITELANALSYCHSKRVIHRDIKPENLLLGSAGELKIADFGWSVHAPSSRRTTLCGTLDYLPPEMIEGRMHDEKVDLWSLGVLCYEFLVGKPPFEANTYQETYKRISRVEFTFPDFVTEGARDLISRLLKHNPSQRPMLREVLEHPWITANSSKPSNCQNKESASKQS
In short: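 Z'-Lyte FRET assay: Aurora A (200-500 ng/mL final), Ser/Thr 1 peptide (2 μM) and ATP (10 μM) in 50 mM HEPES pH 7.5, 10 mM MgCl2, 5 mM EGTA, 0.05% Brij-35, 2 mM DTT, 1 h at room temperature. Coumarin/fluorescein emission ratio converted to percent phosphorylation; dose-response curves plotted.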

[2] = test system: HCT116 cells; assay: Whole cell cytotoxicity assay, Sulforhodamine B; type: cell-based; conditions: Homo sapiens, HCT-116, HCT116, 96 hours incubation, SRB; for GI50: read-out: GI50 HCT116 cell growth; for IC50: read-out: IC50 values in this assay (HCT116 cell growth)
In short: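 HCT116 cells (500/well) in DMEM/10% FBS/2 mM glutamine were preincubated 24 h, then exposed to compound for 96 h at 37 °C, 5% CO2, in duplicate. Cells were fixed with TCA and stained with sulforhodamine B (A570). GI50, TGI and LC50 were derived relative to a time-zero plate and an untreated control.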

[3] = group with IC50 greater than 100 nM

SMILES | IC50 [1] | GI50 [2] | IC50 [1, 3] | IC50 [2]
Cc1cc(Nc2cc(N3CCN(C)CC3)nc(-c3cc4ccccc4n3C)n2)n[nH]1 [Compound 2, 2-(1-methyl-1H-indol-2-yl)-N-(5-methyl-1H-pyrazol-3-yl)-6-(4-methylpiperazin-1-yl)pyrimidin-4-amine] | ≤ 100 nM | ≤ 1000 nM | – | –
Cc1cc(Nc2cc(NCCN3CCOCC3)nc(-c3cc4ccccc4n3C)n2)n[nH]1 [Compound 5, 2-(1-methyl-1H-indol-2-yl)-N^4-(5-methyl-1H-pyrazol-3-yl)-N^6-(2-morpholinoethyl)pyrimidine-4,6-diamine] | – | – | ≤ 1000 nM | 1000 to 10000 nM
Cc1cc(Nc2cc(N3CCN(C)CC3)nc(-c3ccccc3C)n2)n[nH]1 [Compound 40, N-(5-methyl-1H-pyrazol-3-yl)-6-(4-methylpiperazin-1-yl)-2-o-tolylpyrimidin-4-amine] | – | – | ≤ 1000 nM | 1000 to 10000 nM
Cc1cc(Nc2cc(NC3CCOCC3)nc(-c3cc4cc(NS(=O)(=O)C5CC5)ccc4o3)n2)n[nH]1 [Example 156, N-(2-(4-(5-methyl-1H-pyrazol-3-ylamino)-6-(tetrahydro-2H-pyran-4-ylamino)pyrimidin-2-yl)benzofuran-5-yl)cyclopropanesulfonamide] | ≤ 100 nM | – | – | 1000 to 10000 nM
COCCN(C)c1cc(Nc2cc(C)[nH]n2)nc(-c2ccccc2)n1 [Example 171, N^4-(2-methoxyethyl)-N^4-methyl-N^6-(5-methyl-1H-pyrazol-3-yl)-2-phenyl pyrimidine-4,6-diamine] | ≤ 100 nM | – | – | 1000 to 10000 nM
COCCN(C)c1cc(Nc2cc(C)[nH]n2)nc(-c2cc(F)ccc2F)n1 [Example 184, 2-(2,5-difluorophenyl)-N^4-(2-methoxyethyl)-N^4-methyl-N^6-(5-methyl-1H-pyrazol-3-yl)pyrimidine-4,6-diamine] | – | – | ≤ 1000 nM | 1000 to 10000 nM
Cc1cc(Nc2cc(N3CCN(C)CC3)nc(-c3cc4ccccc4o3)n2)n[nH]1 [Compound 1, 2-(benzofuran-2-yl)-N-(5-methyl-1H-pyrazol-3-yl)-6-(4-methylpiperazin-1-yl)pyrimidin-4-amine] | ≤ 100 nM | ≤ 1000 nM | – | –
Cc1cc(Nc2cc(N3CCN(C)CC3)nc(-c3ccc(C#N)cc3)n2)n[nH]1 [Example 160, 4-(4-(5-methyl-1H-pyrazol-3-ylamino)-6-(4-methylpiperazin-1-yl)pyrimidin-2-yl)benzonitrile] | – | ≤ 1000 nM | ≤ 1000 nM | –
CCc1ccccc1-c1nc(Nc2cc(C)[nH]n2)cc(N2CCN(C)CC2)n1 [Example 175, 2-(2-ethylphenyl)-N-(5-methyl-1H-pyrazol-3-yl)-6-(4-methylpiperazin-1-yl)pyrimidin-4-amine] | – | – | ≤ 1000 nM | 1000 to 10000 nM
Cc1cc(C)cc(-c2nc(Nc3cc(C)[nH]n3)cc(N3CCN(C)CC3)n2)c1 [Example 169, 2-(3,5-dimethylphenyl)-N-(5-methyl-1H-pyrazol-3-yl)-6-(4-methylpiperazin-1-yl)pyrimidin-4-amine] | ≤ 100 nM | ≤ 1000 nM | – | –
CCc1ccccc1-c1nc(Nc2cc(C)[nH]n2)cc(NC2CCOCC2)n1 [Example 174, 2-(2-ethylphenyl)-N^4-(5-methyl-1H-pyrazol-3-yl)-N^6-(tetrahydro-2H-pyran-4-yl)pyrimidine-4,6-diamine] | – | – | ≤ 1000 nM | 1000 to 10000 nM
Cc1cc(Nc2cc(N3CCN(C)CC3)nc(-c3cccc(C(F)(F)F)c3)n2)n[nH]1 [Compound 101, N-(5-methyl-1H-pyrazol-3-yl)-6-(4-methylpiperazin-1-yl)-2-(3-(trifluoromethyl)phenyl)pyrimidin-4-amine] | ≤ 100 nM | – | – | 1000 to 10000 nM
Cc1cc(Nc2cc(NC3CCOCC3)nc(-c3cccc(-c4ccccc4)c3)n2)n[nH]1 [Example 159, 2-(biphenyl-3-yl)-N^4-(5-methyl-1H-pyrazol-3-yl)-N^6-(tetrahydro-2H-pyran-4-yl)pyrimidine-4,6-diamine] | ≤ 100 nM | – | – | 1000 to 10000 nM
Cc1ccc(-c2nc(Nc3cc(C)[nH]n3)cc(N3CCN(C)CC3)n2)cc1 [Compound 38, N-(5-methyl-1H-pyrazol-3-yl)-6-(4-methylpiperazin-1-yl)-2-p-tolylpyrimidin-4-amine] | ≤ 100 nM | ≤ 1000 nM | – | –
Cc1cc(Nc2cc(N3CCN(C)CC3)nc(-c3ccc(Cl)cc3)n2)n[nH]1 [Compound 35, 2-(4-chlorophenyl)-N-(5-methyl-1H-pyrazol-3-yl)-6-(4-methylpiperazin-1-yl)pyrimidin-4-amine] | ≤ 100 nM | – | – | 1000 to 10000 nM
Cc1cc(Nc2cc(NC3CCOCC3)nc(-c3ccc(Cl)cc3)n2)n[nH]1 [Compound 22, 2-(4-chlorophenyl)-N^4-(5-methyl-1H-pyrazol-3-yl)-N^6-(tetrahydro-2H-pyran-4-yl)pyrimidine-4,6-diamine] | – | – | ≤ 1000 nM | 1000 to 10000 nM
Cc1cc(Nc2cc(N3CCN(C)CC3)nc(-c3cccnc3)n2)n[nH]1 [Compound 89, N-(5-methyl-1H-pyrazol-3-yl)-6-(4-methylpiperazin-1-yl)-2-(pyridin-3-yl)pyrimidin-4-amine] | ≤ 100 nM | – | – | 1000 to 10000 nM
Cc1cc(Nc2cc(N3CCN(C)CC3)nc(-c3cccc4ccoc34)n2)n[nH]1 [Example 203, 2-(benzofuran-7-yl)-N-(5-methyl-1H-pyrazol-3-yl)-6-(4-methylpiperazin-1-yl)pyrimidin-4-amine] | ≤ 100 nM | – | – | 1000 to 10000 nM
Cc1cc(Nc2cc(N3CCN(C)CC3)nc(-c3ccco3)n2)n[nH]1 [Compound 14, 2-(furan-2-yl)-N-(5-methyl-1H-pyrazol-3-yl)-6-(4-methylpiperazin-1-yl)-pyrimidin-4-amine] | – | – | ≤ 1000 nM | 1000 to 10000 nM
Cc1cc(Nc2cc(NCCN3CCOCC3)nc(-c3ccccc3)n2)n[nH]1 [Compound 11, N^4-(5-methyl-1H-pyrazol-3-yl)-N^6-(2-morpholinoethyl)-2-phenylpyrimidine-4,6-diamine] | ≤ 100 nM | ≤ 1000 nM | – | –
